These results are taken from patent US9573957B2 (Boehringer Ingelheim International GmbH, priority 2013, dated 2017).

For test [1], the target named is human LTA4 hydrolase (Homo sapiens (Human), UniProt P09960). As to the kind of experiment: LTA4H Enzyme assay (peptidase, Arg-AMC cleavage). The class given is biochemical. Particulars: LTA4H Enzyme 1 nM, Arg-AMC substrate 50 μM, room temperature 1 h, fluorescence. In short, it runs like this: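 Aminomethylcoumarin release measured fluorimetrically (380/460 nm) after 1 h at room temperature. Reaction: 1 nM final enzyme, 50 μM final Arg-AMC and compound in Tris-HCl pH 7.5 with 100 mM KCl and 0.5% BSA.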

Test [2] has as its system synthesis of LTB4 in human whole blood. As to the kind of experiment: LTB4 production inhibition assay in human whole blood (HWB). The class given is cell-based. Particulars: heparinized human whole blood, 15 min at 37° C., Calcimycin 20 μM 30 min, plasma LTB4 by HTRF. In short, it runs like this: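 LTB4 in plasma read by HTRF immunoassay after centrifugation. Before that, compound sat with heparinized human whole blood 15 min at 37° C, followed by 30 min at 37° C with 20 μM (final) calcimycin.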
(Time-resolved FRET reads energy transfer from a long-lived donor to a nearby acceptor.)

What is called IC50 is the concentration that gives 50% inhibition.

Chain of human LTA4 hydrolase (P09960 whole entry): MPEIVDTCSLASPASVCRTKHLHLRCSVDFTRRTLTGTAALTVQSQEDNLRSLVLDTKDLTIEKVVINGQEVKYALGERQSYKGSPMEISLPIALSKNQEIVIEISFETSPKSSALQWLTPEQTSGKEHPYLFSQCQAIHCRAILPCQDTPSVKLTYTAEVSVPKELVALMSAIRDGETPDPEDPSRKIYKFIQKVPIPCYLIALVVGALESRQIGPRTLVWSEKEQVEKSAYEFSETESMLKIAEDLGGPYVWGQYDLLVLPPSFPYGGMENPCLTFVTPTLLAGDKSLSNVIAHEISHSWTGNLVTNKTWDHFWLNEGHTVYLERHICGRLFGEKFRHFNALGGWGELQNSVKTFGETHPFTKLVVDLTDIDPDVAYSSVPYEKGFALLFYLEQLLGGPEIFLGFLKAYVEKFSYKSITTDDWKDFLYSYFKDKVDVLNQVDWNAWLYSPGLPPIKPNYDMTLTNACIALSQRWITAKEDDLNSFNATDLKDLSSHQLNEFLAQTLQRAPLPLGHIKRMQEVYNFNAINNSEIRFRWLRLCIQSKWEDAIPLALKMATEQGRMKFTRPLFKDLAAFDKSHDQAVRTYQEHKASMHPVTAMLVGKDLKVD

Turning to `CC(=O)N1CCN(Cc2cn3cc(Oc4ccc(-c5ccn[nH]5)cc4)ccc3n2)CC1` [Example 95, 1-(4-{6-[4-(2H-Pyrazol-3-yl)-phenoxy]-imidazo[1,2-a]pyridin-2-ylmethyl}-piperazin-1-yl)-ethanone], the results for the IC50 in test [1] and in test [2] were 0.00059 µM and 0.28 µM, respectively.

In the case of `CC(C)(C#N)C(=O)N1CCN(Cc2ccc3cc(Oc4ccc(-c5ccn[nH]5)cn4)ccc3n2)CC1` [Example 145, 2,2-Dimethyl-3-oxo-3-(4-{6-[5-(2H-pyrazol-3-yl)-pyridin-2-yloxy]-quinolin-2-ylmethyl}-piperazin-1-yl)-propionitrile], the results for the IC50 in test [1] and in test [2] were 0.0013 µM and 0.51 µM, respectively.

For the molecule `COCC(=O)N1CCN(Cc2cn3cc(Oc4ccc(-c5ccn[nH]5)cc4)ccc3n2)CC1` [Example 89, 2-Methoxy-1-(4-{6-[4-(2H-pyrazol-3-yl)-phenoxy]-imidazo[1,2-a]pyridin-2-ylmethyl}-piperazin-1-yl)-ethanone], the IC50 turned out to be 0.00066 µM in test [1] and 0.47 µM in test [2].

With `CN(C(=O)CO)[C@@H]1CCN(Cc2ccc3cc(Oc4ccc(-c5ccn[nH]5)cn4)ccc3n2)C1` [Example 98], the IC50 was determined as 0.00072 µM in test [1] and 0.12 µM in test [2].

As for `CC(C)(CO)C(=O)N1CCN(Cc2ccc3cc(Oc4ccc(-c5ccn[nH]5)cn4)ccc3n2)CC1` [Example 135, 3-Hydroxy-2,2-dimethyl-1-(4-{6-[5-(2H-pyrazol-3-yl)-pyridin-2-yloxy]-quinolin-2-ylmethyl}-piperazin-1-yl)-propan-1-one], the IC50 was determined as 0.0054 µM in test [1] and 0.61 µM in test [2].

Turning to `CO[C@@H](C)C(=O)N1CCN(CCc2coc3cc(Oc4ccc(-c5ccn[nH]5)cn4)ccc23)CC1` [Example 75, (S)-2-Methoxy-1-[4-(2-{6-[5-(2H-pyrazol-3-yl)-pyridin-2-yloxy]-benzofuran-3-yl}-ethyl)-piperazin-1-yl]-propan-1-one], the IC50 in test [1] came to 0.00088 µM; in test [2] it was 0.25 µM.

As for `O=C1CCCN1C1CCN(CCC2COc3cc(Oc4ccc(-c5ccn[nH]5)cn4)ccc32)CC1` (centres unmarked) [Example 68, 1-[1-(2-{6-[5-(2H-Pyrazol-3-yl)-pyridin-2-yloxy]-2,3-dihydro-benzofuran-3-yl}-ethyl)-piperidin-4-yl]-pyrrolidin-2-one], the IC50 in test [1] was determined as 0.0011 µM; in test [2], 0.27 µM.

With `CC(C)[C@H](O)C(=O)N1CCN(Cc2ccc3cc(Oc4ccc(-c5ccn[nH]5)cn4)ccc3n2)CC1` [Example 137, (S)-2-Hydroxy-3-methyl-1-(4-{6-[5-(2H-pyrazol-3-yl)-pyridin-2-yloxy]-quinolin-2-ylmethyl}-piperazin-1-yl)-butan-1-one], the IC50 in test [1] is 0.0025 µM; in test [2], 0.44 µM.

On to `CC(C)(O)C(=O)N1CCN(Cc2ccc3cc(Oc4ccc(-c5ccn[nH]5)cn4)ccc3n2)CC1` [Example 125, 2-Hydroxy-2-methyl-1-(4-{6-[5-(2H-pyrazol-3-yl)-pyridin-2-yloxy]-quinolin-2-ylmethyl}-piperazin-1-yl)-propan-1-one], for which the figures for the IC50 in test [1] and in test [2] were 0.0012 µM and 0.34 µM, respectively.

With `O=C(CO)N1CCN(CC2Cc3ccc(Oc4ccc(-c5ccn[nH]5)cn4)cc3O2)CC1` (centres unmarked) [Example 65, 2-Hydroxy-1-(4-{6-[5-(2H-pyrazol-3-yl)-pyridin-2-yloxy]-2,3-dihydro-benzofuran-2-ylmethyl}-piperazin-1-yl)-ethanone], the IC50 in test [1] worked out at 0.0046 µM; in test [2], 0.56 µM.

For the molecule `O=C1CCCN1C1CCN(Cc2ccc3cc(Oc4ncc(-c5ccn[nH]5)cn4)ccc3c2)CC1` [Example 36, 1-(1-{6-[5-(2H-Pyrazol-3-yl)-pyrimidin-2-yloxy]-naphthalen-2-ylmethyl}-piperidin-4-yl)-pyrrolidin-2-one], the IC50 amounted to 0.0019 µM in test [1] and 0.22 µM in test [2].

Turning to `CC(=O)N[C@@H]1CCN(Cc2ccc3cc(Oc4ccc(-c5ccn[nH]5)cn4)ccc3c2)C1` [Example 12, N-((R)-1-{6-[5-(2H-Pyrazol-3-yl)-pyridin-2-yloxy]-naphthalen-2-ylmethyl}-pyrrolidin-3-yl)-acetamide], the IC50 in test [1] is 0.00034 µM; in test [2], 0.12 µM.

On to `COCC(=O)N1CCN(CCc2coc3cc(Oc4ccc(-c5ccn[nH]5)cn4)ccc23)CC1` [Example 77, 2-Methoxy-1-[4-(2-{6-[5-(2H-pyrazol-3-yl)-pyridin-2-yloxy]-benzofuran-3-yl}-ethyl)-piperazin-1-yl]-ethanone], for which the IC50 amounted to 0.00088 µM in test [1] and 0.17 µM in test [2].

With `OC[C@H]1CCN(Cc2ccc3cc(Oc4ccc(-c5ccn[nH]5)cn4)ccc3c2)C1` [Example 18, ((S)-1-{6-[5-(2H-Pyrazol-3-yl)-pyridin-2-yloxy]-naphthalen-2-ylmethyl}-pyrrolidin-3-yl)-methanol], the IC50 in test [1] amounted to 0.00076 µM; in test [2] it was 0.16 µM.

As to `CC(=O)N1CCC(CNCc2coc3cc(Oc4ccc(-c5ccn[nH]5)cn4)ccc23)CC1` [Example 107, 1-{4-[({6-[5-(2H-Pyrazol-3-yl)-pyridin-2-yloxy]-benzofuran-3-ylmethyl}-amino)-methyl]-piperidin-1-yl}-ethanone], the IC50 in test [1] was found to be 0.0007 µM; in test [2] it was 0.21 µM.

On to `CC1(O)CC(C(=O)N2CCN(Cc3ccc4cc(Oc5ccc(-c6ccn[nH]6)cn5)ccc4n3)CC2)C1` (centres unmarked) [Example 150, (3-Hydroxy-3-methyl-cyclobutyl)-(4-{6-[5-(2H-pyrazol-3-yl)-pyridin-2-yloxy]-quinolin-2-ylmethyl}-piperazin-1-yl)-methanone], for which the IC50 in test [1] was 0.0034 µM; in test [2] it was 0.49 µM.
